Test results as given in paper PMC8321398, “The discovery of a novel series of compounds with single-dose efficacy against juvenile and adult Schistosoma species” (PLoS Neglected Tropical Diseases, 2021).
pEC50: −log10 of the molar value. Converted amounts (≈) assume the structure as drawn. Read-outs that look alike come from different tables or passages of the source.

Key:
Adult S. mansoni = assay: In vitro adult S. mansoni worm assay; assay type: cell-based; conditions: Schistosoma mansoni, 120 h incubation
Excerpt: (§1) The Puerto Rican strain of S. mansoni was maintained in Biomphalaria glabrata and CD1 mice. Oncomelania hupensis (hupensis) infected with S. japonicum (Chinese strain) and Bulinus truncatus (truncatus) infected with Egyptian strain S. haematobium were obtained from BEI Resources, NIAID, NIH. Infection of mice for worm recovery was as previously described except that, whereas cercariae of S. mansoni and S. haematobium were obtained by shedding from infected snails under lights, cercariae of S. japonicum were obtained by gently crushing the snails. Furthermore, adult S. haematobium were recovered after 12 weeks following mouse infection.
(§2) In vitro efficacy was carried out as previously described. In brief, worms were recovered from infected mice by portal perfusion 3 weeks (for juveniles) or 6 weeks (for adults) post-infection using warm perfusion medium (Dulbecco’s Modified Eagle’s Medium [DMEM], 2mM L-glutamine, 100 Units/ml penicillin, 100μg/ml streptomycin, 20mM Hepes, 10 Units/ml heparin [Sigma, UK]). Worms were washed free of red blood cells using the perfusion medium, and finally suspended in complete medium (cDMEM: DMEM, 2mM L-glutamine, 100 Units/ml penicillin, 100μg/ml streptomycin, 10% FCS). The juvenile assays were carried out in 96-well plates, each well containing 6–8 worms in 200 μL cDMEM. The adult worm assay was in 24-well plates, each well containing 3 worm pairs in 1mL cDMEM. Both the juvenile and adult worm cultures were kept at 37° C, in an atmosphere of 5% CO2. Drug effects were determined on day 5 following drug treatment by assessing the viability of individual worms as described in [14].

Juvenile S. mansoni = assay: In vitro juvenile (3 week old) S. mansoni worm assay; assay type: cell-based; conditions: Schistosoma mansoni; Table 2; in vitro, 120 h incubation
Excerpt: as §1, §2

Mouse pharmacokinetics = assay type: in vivo; conditions: for Clobs / AUC(0-inf) / Vd / half-life: 0.5 mg/kg iv, in a mixture of 5 compounds; for AUC(0-inf) / Vd / bioavailability / half-life: male, Swiss albino, plasma; for Vd: read-out: Vss; for bioavailability: 2.5 mg/kg oral, mixture of 5 compounds, calculated values > 100% shown as 100; for half-life: iv, 0.5 mg/kg, sampled over 24 h
HepG2 cells = assay: Cytotoxicity, HepG2 cells with MTT; assay type: cell-based, human; conditions: Table 2; hepG2 cell line, 72 h incubation
Procedure: Activity against mammalian cells was determined using either of two standard assays. The first of these used MRC-5 cells with Alamar blue staining as previously described. The second used HepG2 cells monitored using 3-(4,5-dimethylthiazol-2-yl)-2,5-diphenyltetrazolium bromide (MTT) as previously described.

[1] = Metabolic stability in mouse hepatocytes; assay type: in vitro ADME; conditions: hepatocytes (suspension), pH 7.4, 90 min incubation, read-out: Mouse hepatocyte % remaining at 90 min
Procedure: (§3) 100 μM compound stock solution was prepared from 5 μL of 4 mM stock in DMSO + 195 μL MeCN. Working solution (2 μM compound) was prepared using 10 μL of 100 μM stock + 490 μL buffer pH 7.4 (KHB supplemented with CaCl2, NaHCO3, HEPES, fructose, glycine; pH 7.4).
(§4) Working solution (25 μL, 2 μM) was added in duplicate to wells in a 0.5 mL per well, 96 well plate which was preincubated to reach 37°C. Hepatocyte suspension (25 μL) was added to each plate, and the plate incubated (37°C, 95% relative humidity with 5% CO2 supply) under gentle mixing (Thermomixer @300 rpm). After designated time periods, ice-cold MeCN (250 μL) was added with a suitable standard. For T = 0 min, ice-cold MeCN (250 μL) with suitable standard was added to the working solution (2 μM) and hepatocyte suspension (25 μL) added. The plates for each time point were shaken, sonicated for 5 mins and kept at 4°C until the final plate was processed. The plates were centrifuged at 4,000 rpm for 20 min, supernatant (110 μL) was mixed with water (110 μL) and the samples analysed using LC-MS/MS.

[2] = Metabolic stability in human hepatocytes; assay type: in vitro ADME; conditions: hepatocytes (suspension), pH 7.4, 90 min incubation, read-out: Human hepatocyte % remaining at 90 min
Procedure: as §3, §4

S. japonicum adult = assay: In vitro adult S. japonicum worm assay; assay type: cell-based
Excerpt: as §1, §2

[3] = In vivo efficacy, mouse model of juvenile (21-day old) S. mansoni infection; conditions: female, CD1, plasma; mouse, Juvenile infection, oral 50 mg/kg, formulation corn oil; read-out: Plasma conc @24 h (efficacy experiment)
Procedure: (§5) Prior to in vivo efficacy experiments, a single animal was given a dose of drug (using the same formulation) that was twice as large as that planned for use in the efficacy experiments and was observed periodically for adverse clinical signs for 24h by trained veterinarians. Adverse clinical signs checked include postural defect, vocalization, oculo-nasal discharge, hypersalivation, change in activity, abnormal gait, respiration and pulse, piloerection, loss of pupillary reflex, eyelid reflex, chromodacryorrhea, reaction to handling, tremor, convulsions, prostration, diarrhoea, cachexia, emaciation. […] In vivo efficacy was assessed in female CD1 mice using methods based on those previously described. Mice were infected subcutaneously with 150 cercariae. Test compounds were suspended in 7% Tween-80 / 3% Ethanol / double distilled water and drug dispersal was facilitated by vortexing and using a sonicating water bath (Formulation “Aqueous”). Alternatively, drugs were first dissolved in DMSO, then diluted with corn oil to give a 1:19 DMSO:corn oil solution/suspension of test compound (Formulation “Corn oil”). Dosing was by oral gavage. Mice in the negative control groups were given the drug suspension vehicle only. Positive controls for treatment of adult, day 42 old, infections were treated with PZQ and those for juvenile, day 21 old, infections with artemether, which unlike PZQ is effective against the juvenile worm infections in mice. During and following treatment, mice were closely observed for any ill effects by staff experienced in animal handling. This involved individuals who were blinded to the treatment groups. Effects they were trained to look for included hunching, immobility, piloerection, subdued behaviour, diarrhoea and loss of body condition. None were seen. Worms were recovered by portal perfusion with citrate saline 8–14 days post treatment and counted. Differences between groups relative to the non-drug treated controls were assessed for statistical significance by Student’s unpaired t-test using GraphPad Prism Software. P values are presented as follows:- ns–P > 0.05 (not significant), * P ≤ 0.05, ** P ≤ 0.01, *** P ≤ 0.001, **** P ≤ 0.0001.
(§6) For pharmacokinetic analysis during the in vivo efficacy experiments individual animals were only sampled once. Samples were taken from one animal in each experimental group at each of 1, 4, 8 h and samples from two animals in each group were taken at 24 h.

[4] = tested on: S. mansoni juvenile worms; assay: as above; conditions: mouse, Juvenile infection, oral 50 mg/kg, formulation corn oil
Procedure: as §5, §6

Kinetic solubility = assay type: physicochemical
Excerpt: Table 4 in vitro, physicochemical and in vivo properties of compounds pictured in Fig 10. | column: Measured physicochemical properties / Kinetic solubility, pH 7.4 (uM); Measured physicochemical properties / Kinetic solubility, FaSSIF (uM); Measured physicochemical properties / Kinetic solubility, FeSSIF (uM)

[5] = Plasma protein binding in human plasma at 10 uM, equilibrium dialysis; assay type: in vitro ADME
Procedure: (§7) Each experiment was performed in duplicate for the compound being tested. A working solution of compound was prepared from 10 μL of 10 mM solution in DMSO + 190 μL 40:60 MeCN:Water. A Total solution was prepared from 12 μL of working solution + 588 μL plasma (compound conc: 10 μM, DMSO: 0.1%, ACN:0.76%). In an equilibrium dialysis chamber, Total solution (200 μL) was added to the plasma chamber and PBS pH 7.4 (350 μL) was added to the buffer chamber. The chamber was then incubated at 37°C for 6 h with constant shaking at 400 rpm (Thermomixer comfort, Eppendorf). Aliquots were removed from both plasma and buffer chambers and the following test samples prepared: Blank: blank Plasma (20 μL) + blank buffer (60 μL), Buffer: blank plasma (20 μL) + test buffer (60 μL), Plasma: test plasma (20 μL) + blank buffer (60 μL), Total: total sample (20 μL) + blank buffer (60 μL). Ice-cold acetonitrile (160 μL), containing a suitable standard was added to all samples, they were shaken vigorously and centrifuged at 4,000 rpm for 20 min at 15°C. Supernatant (110 μL) from each sample was diluted with water (110 μL) and the sample analysed by LC-MS/MS.
(§8) % Free = 100 × (AREA in buffer × dilution factor)/(AREA in Plasma × dilution factor)
(§9) % Recovery = 100 ×[(Avg AREA in buffer × dilution factor) + (Avg AREA in Plasma × dilution factor)] / (Avg AREA in Total × dilution factor)

[6] = Plasma protein binding in mouse plasma at 10 uM, equilibrium dialysis; assay type: in vitro ADME
Procedure: as §7, §8, §9

[7] = tested on: S. mansoni juvenile worms; conditions: cited from earlier work
S. haematobium = tested on: S. haematobium; parameters: method as in PMID 28126024; conditions: 40 mg/kg; cited from earlier work
S. mansoni = tested on: S. mansoni; parameters: method as in PMID 28126024; conditions: 40 mg/kg; cited from earlier work
S. japonicum = tested on: S. japonicum; parameters: method as in PMID 28126024; conditions: 40 mg/kg; cited from earlier work
S. mansoni infections = tested on: S. mansoni infections; parameters: method as in PMID 29126136; conditions: cited from earlier work
[8] = Table 2, in vitro, read-out: Adult S. mansoni EC50
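For Clobs in this document: three mice per experiment, dosed in 10% DMSO with 50 mM Na2HPO4 buffer plus Tween-80, plasma levels quantified by LC-MS against a calibration line prepared in blank matrix.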
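For F in this document: three mice per experiment, dosed in 10% DMSO with 50 mM Na2HPO4 buffer plus Tween-80, plasma levels quantified by LC-MS against a calibration line prepared in blank matrix.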
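For Vss in this document: three mice per experiment, dosed in 10% DMSO with 50 mM Na2HPO4 buffer plus Tween-80, plasma levels quantified by LC-MS against a calibration line prepared in blank matrix.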

Row | Compound | pEC50 (Adult S. mansoni; [8]) | pEC50 (Juvenile S. mansoni) | Clobs (Mouse pharmacokinetics) [L/h/kg] | AUC(0-inf) (Mouse pharmacokinetics) [µg·h/mL] | Vd (Mouse pharmacokinetics) [L/kg] | bioavailability (Mouse pharmacokinetics) [%] | half-life (Mouse pharmacokinetics) [h] | Cytotox TC50 (HepG2 cells) | remaining at 1.5 h, 1 µM [1] [%] | remaining at 1.5 h, 1 µM [2] [%] | further results
1 | CC(C)c1nn2cnc(-c3ccc(F)c(C(F)(F)F)c3)cc2c1-c1ccc2[nH]ncc2c1F [LSHTM-3644] | 7.40 | 7.22 | 0.38 | 1.33 | 2.4 | 76 | 6.3 | – | – | – | –
2 | CC(C)c1cc(-c2cn3c(-c4ccc5[nH]ncc5c4F)c(C(F)(F)F)nc3cn2)ccc1F [LSHTM-3661] | 8.64 | 8.57 | 1.88 | 0.3 | 5.6 | 57.1 | 4.5 | 17,000 nM | 78 | 45 | pEC50 (Adult S. mansoni; Table 3, S. mansoni, read-out: Sm adult EC50): 8.64; pEC50 (S. japonicum adult; Schistosoma japonicum, S. japonicum, 120 h incubation, read-out: Sj adult EC50): 7.61; Potency ratio Sj/Sm (S. japonicum adult; adult EC50 S. japonicum / S. mansoni): 10.9; concentration at 24 h [3]: 0.178 µg/mL; Worms remaining [4]: 0%; solubility kinetic at 24 h (Kinetic solubility; pH 7.4, read-out: Kinetic solubility, pH 7.4): 0.04 µM (≈ 0.0183 µg/mL)
3 | CC(C)Oc1cc(-c2cn3c(-c4ccc5[nH]ncc5c4F)c(C(F)(F)F)nc3cn2)ccc1F [LSHTM-3690] | 8.05 | 7.95 | 1.47 | 0.3 | 5 | 100 | 4.6 | 9,250 nM | 31 | 79 | Human plasma protein %binding [5]: 99.925%; recovery at 6 h, 10 µM ([5]; human, human plasma, pH 7.4): 89%; Mouse plasma protein %binding [6]: 99.8775%; recovery at 6 h, 10 µM ([6]; mouse, mouse plasma, pH 7.4): 93.9%; solubility kinetic at 24 h (Kinetic solubility; FaSSIF, pH 6.5, read-out: Kinetic solubility, FaSSIF): 188 µM (≈ 89 µg/mL); solubility kinetic at 24 h (Kinetic solubility; FeSSIF, pH 5, read-out: Kinetic solubility, FeSSIF): 196 µM (≈ 92.8 µg/mL)
4 | O=C(C1CCCCC1)N1CC(=O)N2CCc3ccccc3C2C1 (stereo not drawn) [PZQ, Praziquantel] | – | – | – | – | – | – | – | – | – | – | activity against the juvenile stages ([7]; both in vivo and in vitro): relatively ineffective; cure rate in children (S. haematobium): 73.6%; cure rate in children (S. mansoni): 76.4%; cure rate in children (S. japonicum): 95.3%
5 | CO[C@H]1O[C@@H]2O[C@@]3(C)CC[C@H]4[C@H](C)CC[C@@H]([C@H]1C)[C@@]24OO3 [artemether] | – | – | – | – | – | – | – | – | – | – | efficacy against the juvenile worm infections in mice ([7]; mice): effective
6 | CC(C)NCC1CCc2cc(CO)c([N+](=O)[O-])cc2N1 (stereo not drawn) [oxamniquine] | – | – | – | – | – | – | – | – | – | – | efficacy against S. mansoni infections (S. mansoni infections): effective
